Assay results as given in patent US7183100B2, “Aconitase” (priority 2003, dated 2007).

Columns and labels:
[1] = tested on: PA01, FRD1 and mucoid clinical isolate strains (acnC or acnA disrupted); experiment: Growth on propanediol as carbon source; format: cell-based, P. aeruginosa; details: all strains
Text: (§1) In addition to PA01, an additional mucosal strain, FRD1 with gentamicin resistance was subjected to disruption of the acnC gene, as was a mucoid clinical isolate. For comparison, aconitase A was also similarly disrupted. All of the strains behaved similarly in respect to their ability to grow on propanediol in the presence and absence of propionic acid.

[2] = tested on: acnC disrupted strain (PA01*); experiment: Growth on various carbon sources; format: cell-based, P. aeruginosa; details: substance used as carbon source
Text: (§2) When tested for growth on various carbon sources, no difference was observed when glucose, glutamate, citrate, isocitrate, succinate, acetate, pyruvate, butyrate, hexonate, or glyoxalate was used as a carbon source.

[3] = tested on: FRD1; experiment: Reversal of propionate growth inhibition by TCA intermediates in M9 minimal media; format: cell-based, P. aeruginosa; details: 0.4% propionate
Method: This effect was tested by supplementing M9 minimal media with various TCA cycle components in the presence of 0.4% propionate.

[4] = tested on: FRD1; experiment: Effect of ibuprofen on growth of FRD1 (absorbance at 600 nm); format: cell-based, P. aeruginosa; details: Pseudomonas aeruginosa, 2 ml LB cultures, read-out: percent inhibition of growth
Method: Ibuprofen is known to generate propionic acid when metabolized and was thus tested for its ability to inhibit the growth of FRD1. Other propionate-generating compounds include certain α4β1 integrin antagonists described by DuPlantier, A. J., et al., Bioorg. Med. Chem. Let. (2001) 11:2593–2596. Using absorbance at 600 nm as the criterion, growth inhibition was detected at a concentration of 0.5 mg/ml of ibuprofen added to 2 ml LB cultures; the percent inhibition at this level was 19%. Inhibition increased in a dose-dependent manner to 72% at 5 mg/ml, and was similar at 10 mg/ml (73%).

[5] = tested on: PA01 wildtype; experiment: Growth on various carbon sources; format: cell-based, P. aeruginosa; details: substance used as carbon source
Text: as §2

[6] = tested on: PA01*; experiment: Growth in TSBD plus 100 μM iron medium with propionate; format: cell-based, P. aeruginosa; details: 0.05% propionate, with and without 50 mM glutamate, FIG. 3
[7] = tested on: FRD1 with disrupted aconitase C gene; experiment: Growth on propanediol with added propionic acid; format: cell-based, P. aeruginosa; details: propanediol medium
Text: as §1

[8] = tested on: PA01 with disrupted aconitase C gene; experiment: Growth on propanediol with added propionic acid; format: cell-based, P. aeruginosa; details: propanediol medium
Text: as §1

[9] = tested on: FRD1; experiment: Propionate inhibition of growth; format: cell-based, P. aeruginosa; details: in the medium
Text: (§3) FRD1 is much more susceptible to propionate inhibition than wildtype PA01. While PA01 is able to grow on 0.4% propionate, inhibition of FRD1 growth occurs at levels of 0.1% propionate and inhibition is complete as low as 0.2% propionate in the medium.

[10] = tested on: wildtype PA01; experiment: Propionate inhibition of growth; format: cell-based, P. aeruginosa; details: 0.4% propionate
Text: as §3

[11] = tested on: mucoid clinical isolates; experiment: Effect of propionate on growth of mucoid clinical isolates; format: cell-based; details: low concentrations of propionate, FIG. 4, vs non-mucoid BH1 and revertant BAB
[12] = tested on: FRD1; experiment: Growth in LB medium with 0.4% propionate; format: cell-based, P. aeruginosa
Method: (§4) The effect of the addition of 0.4% propionate to LB medium containing wildtype PA01, PA01*, and the more sensitive mucoid strain FRD1, was also tested.

[13] = tested on: PA01*; experiment: Growth in LB medium with 0.4% propionate; format: cell-based, P. aeruginosa
Method: as §4

[14] = tested on: wildtype PA01; experiment: Growth in LB medium with 0.4% propionate; format: cell-based, P. aeruginosa
Method: as §4

[15] = tested on: FRD1 cells; experiment: Attachment of cells to plastic tubes (absorbance at 570 nm); format: cell-based, P. aeruginosa; details: as low as 0.1% propionate
Method: (§5) As mucoid production is necessary for attachment, the effect on mucoid production of addition of propionate can be tested by assessing the level of attachment of the cells to plastic tubes. This was measured as the absorbance at 570 nm of plastic tubes.

[16] = tested on: PA01; experiment: as above; format: cell-based, P. aeruginosa; details: compared with FRD1
Method: as §5

[17] = tested on: FRD1; experiment: Effect of propionate on antibiotic susceptibility (antibiotic discs); format: cell-based, P. aeruginosa; details: 0.2% propionate
Method: (§6) The effect of various concentrations of propionate on the ability of antibiotics to curtail the growth of PA01 or FRD1 was tested. Levels of 0.2% propionate appeared to have no effect on PA01 growth in the presence of the antibiotics amikacin, carbenicillin, ciprofloxacin, tobramycin, and tetracycline. Growth was assured by the diameter of colonies formed in the presence of discs containing amikacin (AN-30), 30 μg, carbenicillin (CB-100), 100 μg, ciprofloxacin (CIP-5), 5 μg, tobramycin (NN-10), 10 μg, or tetracycline (TE-30), 30 μg.

[18] = tested on: PA01; experiment: as above; format: cell-based, P. aeruginosa; details: 0.2% propionate; amikacin, carbenicillin, ciprofloxacin, tobramycin, tetracycline discs
Method: as §6

SMILES: CC(O)CO (stereo not drawn) [1,2-propanediol]
- ability to grow on carbon source [1]: able to grow

SMILES: OCCCO [1,3-propanediol]
- ability to grow on carbon source [1]: less able to grow

SMILES: CC(=O)O [acetate]
- difference in growth between wildtype and acnC disrupted strain [2]: no difference
- reversal of negative effects of propionate on growth [3]: successful

SMILES: O=C(O)CC(O)(CC(=O)O)C(=O)O [citrate]
- difference in growth between wildtype and acnC disrupted strain [2]: no difference

SMILES: N[C@@H](CCC(=O)O)C(=O)O [glutamate]
- difference in growth between wildtype and acnC disrupted strain [2]: no difference
- reversal of negative effects of propionate on growth [3]: successful

SMILES: O=CC(=O)O [glyoxalate]
- difference in growth between wildtype and acnC disrupted strain [2]: no difference

SMILES: CCCCCC(=O)O [hexanoate, hexanoic acid]
- difference in growth between wildtype and acnC disrupted strain [2]: no difference

SMILES: CC(C)Cc1ccc(C(C)C(=O)O)cc1 (stereo not drawn) [ibuprofen, Ibuprofen]
- inhibition at 500 µg/mL ([4]; 0.5 mg/ml): 19%
- inhibition at 5000 µg/mL ([4]; 5 mg/ml): 72%
- inhibition at 10000 µg/mL ([4]; 10 mg/ml): 73%

SMILES: O=C(O)CC(O)C(=O)O (stereo not drawn) [malate]
- reversal of negative effects of propionate on growth [3]: successful

SMILES: CCCCC(=O)O [pentanoate, pentanoic acid]
- growth of wildtype on carbon source [5]: grow well
- growth of acnC disrupted strain on carbon source [2]: did not grow

SMILES: CCC(=O)O [propionate, propionic acid]
- growth of wildtype on carbon source [5]: grow well
- growth of acnC disrupted strain on carbon source [2]: did not grow
- growth as compared to wildtype [6]: growth is diminished
- ability to grow after addition of propionic acid [7]: completely abolished
- ability to grow after addition of propionic acid [8]: completely abolished
- propionate level at which inhibition of growth is complete [9]: 0.2%
- propionate level at which inhibition of growth occurs [9]: 0.1%
- growth on propionate [10]: able to grow
- growth inhibition [11]: substantial growth inhibition
- response of growth [12]: diminished growth
- response of growth [13]: diminished growth
- response of growth [14]: does not respond
- effect on attachment to plastic tubes [15]: diminish significantly
- effect on attachment to plastic tubes [16]: less dramatic
- effect on growth inhibition by antibiotics ([17]; CB-100 and CIP-5 discs): diminish the effect
- effect on efficiency of antibiotics ([17]; remaining antibiotics (amikacin, tobramycin, tetracycline)): little, if any, effect
- effect on growth in the presence of antibiotics [18]: no effect

SMILES: O=C(O)CCC(=O)O [succinate]
- difference in growth between wildtype and acnC disrupted strain [2]: no difference
